Where two headings read alike, the source gives them in different places.
Key:
[1] = system: Candida albicans ATCC10231; experiment: Systemic fungal infection in mice, administration by gavage, survival; assay type: in vivo; conditions: ICR mice, 5 mg/kg (calculated as voriconazole) once daily for 5 days
Procedure: (§1) ICR mice, weighing 18-22 g, male, provided by the Hubei Experimental Animal Center.
(§2) The standard strain Candida albicans was purchased from the American Type Culture Collection, and the strain number was ATCC10231.
Before the experiment, a small amount of Candida albicans was picked from the SDA medium preserved at 4° C. by inoculation circle, inoculated into 1 ml of YPD culture medium, and cultured at 30° C. while being shaken at 200 rpm for 16 hours to make the fungus in the late stage of exponential growth. Blood cell counting plate was used to count, and the concentration of the broth was adjusted to 1*10^3−5*10^3 CFU/ml with RPMI1640 medium. The Candida albicans monoclone on the SDA plate was picked, inoculated into 1 ml YPD medium, cultured at 35° C., 200 rpm for 16 hours to the late exponential growth phase, 1% of which was then inoculated in fresh medium for 6 hours, centrifuged at 1000×g for 5 mins, washed three times with saline until the supernatant was colorless, while hemocytometer was used to count. The cell concentration was adjusted to 5*10^6/ml. The tail vein injection of 0.1 ml/10 g was carried out to cause a systemic fungal infection in mice. The mice were randomized into groups of 10 each. Voriconazole used was in the form of a suspension prepared with CMC-Na (Shanghai Panhong Chemical Technology Co., Ltd.), while other tested drugs were dissolved in saline and sonicated until clarified for administration. After establishing a systemic fungal infection model in mice for 2 hours, each group was administered by gavage with 5 mg/kg (calculated as voriconazole) drug, with the volume for administration of 0.1 ml/10 g. The mice in the model group were administered 0.1 ml/10 g of 0.9% sodium chloride solution, once daily, for 5 consecutive days. The death situation of the mice was inspected and the survival time was recorded. After a total of 7 days of observation, all dead mice were treated with fire using ethanol.

[2] = In vitro metabolic stability in human intestinal S9; assay type: in vitro ADME; conditions: 37°C, S9 1 mg/mL, compound 10 μM, NADPH regeneration system
Procedure: (§3) The two reaction systems were set up three samples in parallel, while each sample was taken in an amount of 100 μL at 1 min, 2 mins, 5 mins, 15 mins, and 30 mins after the reaction, added to the centrifuge tube containing 400 μL of 0° C. pre-cooled internal standard working fluid and terminated the reaction. The sample was mixed by vortex for 1 min, centrifuged at 10,000×g for 10 mins in a 4° C. pre-cooled high-speed centrifuge. The supernatant was taken for HPLC detection. […] Concentration of mother liquor of compounds: 1 mM […] [table]

[3] = In vitro metabolic stability in rat intestinal S9; assay type: in vitro ADME; conditions: 37°C, S9 1 mg/mL, compound 10 μM, NADPH regeneration system
Procedure: as §3

[4] = In vitro metabolic stability in rat plasma; assay type: in vitro ADME; conditions: 37°C, compound 10 μM
Procedure: The two reaction systems were set up three samples in parallel, while each sample was taken in an amount of 100 μL at 1 min, 2 mins, 5 mins, 15 mins, and 30 mins after the reaction, added to the centrifuge tube containing 400 μL of 0° C. pre-cooled internal standard working fluid and terminated the reaction. The sample was mixed by vortex for 1 min, centrifuged at 10,000×g for 10 mins in a 4° C. pre-cooled high-speed centrifuge. The supernatant was taken for HPLC detection. […] Concentration of mother liquor of compounds: 1 mM […]

[5] = In vitro metabolic stability in human plasma; assay type: in vitro ADME; conditions: 37°C, compound 10 μM
Procedure: The two reaction systems were set up three samples in parallel, while each sample was taken in an amount of 100 μL at 1 min, 2 mins, 5 mins, 15 mins, and 30 mins after the reaction, added to the centrifuge tube containing 400 μL of 0° C. pre-cooled internal standard working fluid and terminated the reaction. The sample was mixed by vortex for 1 min, centrifuged at 10,000×g for 10 mins in a 4° C. pre-cooled high-speed centrifuge. The supernatant was taken for HPLC detection.

[6] = Pharmacokinetics after single gastrointestinal (gavage) administration in rats (plasma voriconazole); assay type: in vivo; conditions: SD rats, 2.5 mg/kg (calculated as voriconazole)
Procedure: Dosing volume for administration: 10 ml/kg
Solvent medium for administration: except for the positive voriconazole group using CMC-Na, the other groups using normal saline
Route of administration: gavage

[7] = system: Candida albicans ATCC10231; experiment: Systemic fungal infection in mice, intravenous administration, survival; assay type: in vivo; conditions: ICR mice, tail vein, 5 mg/kg (calculated as voriconazole) once daily for 5 days
Procedure: as §1, §2
Before the experiment, a small amount of Candida albicans was picked from the SDA medium preserved at 4° C. by inoculation circle, and inoculated into 1 ml YPD (Yeast Extract Peptone Dextrose Medium, the same below) culture medium, under shake cultivation at 30° C., 200 rpm, activated for 16 hours to make the fungus in the late stage of the exponential growth phase. Blood cell counting plate was used to count. The concentration of the broth was adjusted to 1*10^3-5*10^3 CFU/ml with RPMI1640 (Roswell Park Memorial Institute 1640, the same below) culture medium. The Candida albicans monoclone on the SDA plate was picked and inoculated into 1 ml YPD medium, cultured at 35° C., 200 rpm for 16 hours to the late exponential growth phase, 1% of which was then inoculated in fresh medium for 6 hours, centrifuged at 1000×g for 5 mins, washed three times with saline until the supernatant was colorless, while hemocytometer was used to count. The cell concentration was adjusted to 5*10^6/ml. The tail vein injection of 0.1 ml/10 g was carried out to cause a systemic fungal infection in mice. The mice were randomized into groups of 10 each. Since voriconazole was insoluble in vehicle (physiological saline), the mice of the voriconazole group in the test were injected a commercially available voriconazole (Pfizer, product lot number Z467001), that is, sulfobutyl ether-β-cyclodextrin used as a solubilizer, while other groups used physiological saline as a solvent. After establishing a systemic fungal infection model in mice for 2 hours, each administration group was administered with 5 mg/kg (calculated as voriconazole) drug in the tail vein, with the volume for administration of 0.1 ml/10 g. The mice in the model group were administered 0.1 ml/10 g of 0.9% sodium chloride solution, once daily, for 5 consecutive days. The death situation of the mice was inspected and the survival time was recorded. After a total of 7 days of observation, all dead mice were treated with fire using ethanol.

[8] = Pharmacokinetics after single intravenous administration in rats (plasma voriconazole)
Procedure: Dosage for administration: 2.5 mg/kg (calculated as voriconazole)
Dosing volume for administration: 2.5 ml/kg
Drug concentration: 1 mg/mL (calculated as voriconazole)
Route of administration: tail vein injection Experimental animals: SD rats, SPF grade, weighing 180-220 g, half male and half female; the SD rats were randomized into groups of 6 animals each, three males and three females in each group. Experimental method: Blood samples were collected at different time points after tail vein administration, and the plasma concentrations of voriconazole were measured.

[9] = Solubility test in deionized water (HPLC, external calibration); assay type: physicochemical
Procedure: Experimental condition: 25±2° C.
Dissolving medium: deionized water
Experimental method: 1 mg voriconazole and appropriate amount of each compound were weighed, placed in 1 ml deionized water separately, shaken vigorously for 30 s every 5 mins for 30 mins.

[10] = voriconazole in plasma, SD rats, tail vein injection, 2.5 mg/kg (calculated as voriconazole)

SMILES	survival rate of mice, day 1 [1] [%]	survival rate of mice, day 2 [1] [%]	survival rate of mice, day 3 [1] [%]	survival rate of mice, day 4 [1] [%]	survival rate of mice, day 5 [1] [%]	survival rate of mice, day 6 [1] [%]	survival rate of mice, day 7 [1] [%]	Human intestinal S9 T1/2 [2] [min]	Rat intestinal S9 T1/2 [3] [min]	Rat plasma T1/2 [4] [min]	Human plasma T1/2 [5] [min]	AUClast [6] [ng·h/mL]	Cmax [6] [ng/mL]	T1/2 [6] [min]	survival rate of mice, day 1 [7] [%]	survival rate of mice, day 2 [7] [%]	survival rate of mice, day 3 [7] [%]	survival rate of mice, day 4 [7] [%]	survival rate of mice, day 5 [7] [%]	survival rate of mice, day 6 [7] [%]	further results
CC(OC(=O)N(C)c1ncccc1COC(=O)CN)[n+]1cnn(C[C@](O)(c2ccc(F)cc2F)[C@@H](C)c2ncncc2F)c1.[Cl-] (some centres unmarked) [QR16001]	100	100	100	100	90	80	80	10.09 ± 1.75	10.15 ± 2.65	1.23 ± 0.45	1.56 ± 0.26	8562 ± 1125	789 ± 362	193 ± 76.8	100	100	100	100	100	100	AUClast ([8]; rat, in vivo, 2.5 mg/kg): 10515 ± 1985 ng·h/mL; T1/2 ([8]; rat, in vivo, 2.5 mg/kg): 128 ± 58.8 min; Solubility ([9]; deionized water, 25±2°C): >50 mg/mL
CC(OC(=O)N(C)c1ncccc1COC(=O)C(N)CO)[n+]1cnn(CC(O)(c2ccc(F)cc2F)C(C)c2ncncc2F)c1.Cl.Cl.[Cl-] (centres unmarked) [QR16015]	100	100	100	100	100	80	80	12.72 ± 1.72	15.95 ± 4.96	1.58 ± 0.95	2.05 ± 0.26	8144 ± 1468	996 ± 365	167 ± 73.8	100	100	100	100	100	90	AUClast ([8]; rat, in vivo, 2.5 mg/kg): 10526 ± 2695 ng·h/mL; T1/2 ([8]; rat, in vivo, 2.5 mg/kg): 171 ± 107 min; Solubility ([9]; deionized water, 25±2°C): >50 mg/mL
CC(O)C(N)C(=O)OCc1cccnc1N(C)C(=O)OC(C)[n+]1cnn(CC(O)(c2ccc(F)cc2F)C(C)c2ncncc2F)c1.Cl.Cl.[Cl-] (centres unmarked) [QR16016]	100	100	90	90	90	90	80	15.72 ± 0.98	19.62 ± 3.69	1.95 ± 0.87	2.12 ± 1.07	8332 ± 3254	885 ± 344	134 ± 75	100	100	100	100	100	90	AUClast ([8]; rat, in vivo, 2.5 mg/kg): 10477 ± 1854 ng·h/mL; T1/2 ([8]; rat, in vivo, 2.5 mg/kg): 159 ± 52.8 min; Solubility ([9]; deionized water, 25±2°C): >50 mg/mL
CC(OC(=O)N(C)c1ncccc1COC(=O)[C@@H](N)CCCCN)[n+]1cnn(C[C@](O)(c2ccc(F)cc2F)[C@@H](C)c2ncncc2F)c1.[Cl-] (some centres unmarked) [QR16017]	100	100	90	90	90	90	80	11.25 ± 2.21	15.69 ± 6.95	0.78 ± 0.86	0.95 ± 0.28	8695 ± 2958	952 ± 421	177 ± 75	100	100	100	100	100	100	AUClast [8, 10]: 10259 ± 3285 ng·h/mL; T1/2 [8, 10]: 167 ± 45 min; Solubility [9]: >50 mg/mL
